Read-outs that look alike come from different tables or passages of the source.
Legend:
[1] = test system: Brucella abortus Strain 19; type: cell-based; details: Strain 19 [vaccine strain]
Campylobacter fetus = assay: Antibiotic sensitivity of bacterial isolate; type: cell-based
[2] = test system: fresh semen of domestic bulls (Bos taurus)
[3] = test system: fresh semen of gaur (Bos gaur) bulls
[4] = test system: cryopreserved bovine (Bos gaurus) sperm

Compound | sensitivity of B. abortus to antibiotic [1] | sensitivity of C. fetus to antibiotic (Campylobacter fetus) | sensitivity of C. fetus to antibiotic (Campylobacter fetus; laboratory isolate [4914]) | detrimental effects on sperm (motility, viability, acrosomal integrity) [2] | detrimental effects on sperm (motility, viability, acrosomal integrity) [3] | detrimental effects of increasing the concentration [4]
gentamicin | sensitive | sensitive |  |  |  | 
CCC[C@@H]1C[C@@H](C(=O)N[C@@H]([C@H]2O[C@H](SC)[C@H](O)[C@@H](O)[C@H]2O)[C@@H](C)O)N(C)C1 [lincomycin] | resistant |  | sensitive |  |  | 
CC[C@H]1OC(=O)C[C@@H](O)[C@H](C)[C@@H](O[C@@H]2O[C@H](C)[C@@H](O[C@H]3C[C@@](C)(O)[C@@H](O)[C@H](C)O3)[C@H](N(C)C)[C@H]2O)[C@@H](CC=O)C[C@@H](C)C(=O)/C=C/C(C)=C/[C@@H]1CO[C@@H]1O[C@H](C)[C@@H](O)[C@@H](OC)[C@H]1OC [tylosin] | intermediate |  | intermediate |  |  | 
CN[C@@H]1[C@H](O)[C@H](NC)[C@H]2O[C@@]3(O)C(=O)C[C@@H](C)O[C@H]3O[C@@H]2[C@H]1O [spectinomycin] | sensitive |  | intermediate |  |  | 
trypsin |  |  |  | no detrimental affects | no detrimental affects | no detrimental effects

— patent publication US7273694B2, “Method and apparatus for reducing pathogens in a biological sample” (Safety Art, LLC, priority 2001, dated 2007)
